The structures appear in SMILES notation. Several values for one entry are separate records, joined by “and”; a condition that tells them apart may be missing. Identical values can stand only once. Toxic doses and inconclusive results are not listed.

For this assay, the system named is B6C3F1 mice, intracerebral ependymoblastoma, median survival T/C. Kind of assay: NCI In Vivo Anticancer Drug Screen. Data for tumor model Ependymoblastoma (intracerebral) in B6C3F1 mice. Particulars: endpoint: median survival time, higher = longer survival. How it is done:
The antitumor activity of compounds was measured in mice bearing transplantable tumors. Survival or tumor size were measured and the results are expressed as the measurement made in the treated group (T) divided by the measurement made in the vehicle treated control group (C). The tumor model used in this assay is Ependymoblastoma (intracerebral) in B6C3F1 mice

The mark [1] stands for this setting: dose: 2.59 mg/kg/injection, schedule: Q01DX005 (ip), vehicle: Klucel (hydroxypropylcellulose) (HPC).
[2] abbreviates: dose: 4.32 mg/kg/injection, schedule: Q01DX005 (ip), vehicle: Klucel (hydroxypropylcellulose) (HPC).
The mark [3] stands for this setting: dose: 7.2 mg/kg/injection, schedule: Q01DX005 (ip), vehicle: Klucel (hydroxypropylcellulose) (HPC).
[4] abbreviates: dose: 12.0 mg/kg/injection, schedule: Q01DX005 (ip), vehicle: Klucel (hydroxypropylcellulose) (HPC).
[5] abbreviates: dose: 1.0 mg/kg/injection, schedule: Q01DX005 (ip), vehicle: suspension in saline.
Where [6] appears, read: dose: 4.0 mg/kg/injection, schedule: Q01DX005 (ip), vehicle: suspension in saline.

Regarding `O=NN(CCCl)C(=O)NC1[C@H](O)CCC[C@@H]1O` (some centres not stated), the T/C is 236 % of control under setting [1]; 115 % of control (dose: 4.32 mg/kg/injection, schedule: Q01DX001 (ip), vehicle: saline); 357 % of control under setting [2]; 281 % of control (dose: 4.32 mg/kg/injection, schedule: Q01DX005 (ip), vehicle: saline); 357 % of control under setting [3]; 281 % of control (dose: 7.2 mg/kg/injection, schedule: Q01DX005 (ip), vehicle: saline). The T/C is 163 % of control (dose: 12.0 mg/kg/injection, schedule: Q01DX001 (ip), vehicle: saline); 88 % of control under setting [4]; 218 % of control (dose: 20.0 mg/kg/injection, schedule: Q01DX001 (ip), vehicle: saline).
On to `C#CCN(C)/N=N/c1nc[nH]c1C(N)=O`, for which the T/C is 150 % of control (dose: 32.0 mg/kg/injection, schedule: Q01DX005 (ip), vehicle: saline with Tween-80) and 157 % of control (dose: 128.0 mg/kg/injection, schedule: Q01DX005 (ip), vehicle: saline with Tween-80).
For `O=NN(CCF)C(=O)NC1C(O)CCCC1O` (configuration not stated), the T/C reads like this: (dose: 5.18 mg/kg/injection, schedule: Q01DX005 (ip), vehicle: Klucel (hydroxypropylcellulose) (HPC)) 189 % of control; (dose: 8.64 mg/kg/injection, schedule: Q01DX005 (ip), vehicle: Klucel (hydroxypropylcellulose) (HPC)) 230 % of control; (dose: 13.0 mg/kg/injection, schedule: Q01DX001 (ip), vehicle: saline) 115 % of control; (dose: 14.4 mg/kg/injection, schedule: Q01DX005 (ip), vehicle: Klucel (hydroxypropylcellulose) (HPC)) 357 % of control; (dose: 24.0 mg/kg/injection, schedule: Q01DX005 (ip), vehicle: Klucel (hydroxypropylcellulose) (HPC)) 111 % of control; (dose: 36.0 mg/kg/injection, schedule: Q01DX001 (ip), vehicle: saline) 159 % of control. For the same compound, the T/C by setting is: (dose: 60.0 mg/kg/injection, schedule: Q01DX001 (ip), vehicle: saline) 247 % of control; (dose: 100.0 mg/kg/injection, schedule: Q01DX001 (ip), vehicle: saline) 157 % of control.
With `C(COCCOCC1CO1)OCCOCC1CO1` (configuration not stated), the T/C reads like this: (dose: 25.0 mg/kg/injection, schedule: Q01DX005 (ip), vehicle: saline) 100 % of control and 118 % of control; (dose: 50.0 mg/kg/injection, schedule: Q01DX005 (ip), vehicle: saline) 97 % of control and 121 % of control; (dose: 100.0 mg/kg/injection, schedule: Q01DX005 (ip), vehicle: saline) 97 % of control and 100 % of control; (dose: 200.0 mg/kg/injection, schedule: Q01DX005 (ip), vehicle: saline) 105 % of control.
For `O=NN(CCCl)C(=O)NC1CCC(=O)NC1=O` (configuration not stated), the T/C (dose: 0.5 mg/kg/injection, schedule: Q01DX005 (ip), vehicle: Klucel (hydroxypropylcellulose) (HPC)) is 91 % of control; the T/C (dose: 0.5 mg/kg/injection, schedule: Q01DX005 (ip), vehicle: saline with Tween-80) is 109 % of control; the T/C (dose: 1.0 mg/kg/injection, schedule: Q01DX005 (ip), vehicle: Klucel (hydroxypropylcellulose) (HPC)) is 114 % of control; the T/C under setting [5] is 124 % of control; the T/C (dose: 1.0 mg/kg/injection, schedule: Q01DX009 (ip), vehicle: saline with Tween-80) is 241 % of control; the T/C (dose: 2.0 mg/kg/injection, schedule: Q01DX005 (ip), vehicle: saline with Tween-80) is 238 % of control. The T/C (dose: 2.0 mg/kg/injection, schedule: Q01DX009 (ip), vehicle: saline with Tween-80) is 241 % of control; the T/C under setting [1] was 309 % of control; the T/C (dose: 4.0 mg/kg/injection, schedule: Q01DX001 (ip), vehicle: saline + alcohol) is 154 % of control; the T/C (dose: 4.0 mg/kg/injection, schedule: Q01DX005 (ip), vehicle: Klucel (hydroxypropylcellulose) (HPC)) was 207 % of control; the T/C (dose: 4.0 mg/kg/injection, schedule: Q01DX005 (ip), vehicle: saline with Tween-80) is 396 % of control; the T/C under setting [6] was 179 % of control and 236 % of control and 260 % of control. Moreover, the T/C runs as follows: under setting [2], 357 % of control; (dose: 5.0 mg/kg/injection, schedule: Q01DX001 (ip), vehicle: DMSO) 112 % of control; (dose: 6.0 mg/kg/injection, schedule: Q01DX005 (ip), vehicle: suspension in saline) 262 % of control and 267 % of control; (dose: 7.2 mg/kg/injection, schedule: Q01DX001 (ip), vehicle: Klucel (hydroxypropylcellulose) (HPC)) 187 % of control; under setting [3], 357 % of control; (dose: 8.0 mg/kg/injection, schedule: Q01DX001 (ip), vehicle: saline + alcohol) 229 % of control. The T/C is 274 % of control (dose: 8.0 mg/kg/injection, schedule: Q01DX005 (ip), vehicle: Klucel (hydroxypropylcellulose) (HPC)); 172 % of control (dose: 8.0 mg/kg/injection, schedule: Q01DX005 (ip), vehicle: saline with Tween-80); 205 % of control (dose: 8.0 mg/kg/injection, schedule: Q01DX005 (ip), vehicle: suspension in saline); 226 % of control (dose: 8.3 mg/kg/injection, schedule: Q01DX001 (ip), vehicle: DMSO); 175 % of control (dose: 10.0 mg/kg/injection, schedule: Q07DX003 (ip), vehicle: saline); 252 % of control (dose: 10.0 mg/kg/injection, schedule: Q07DX003 (ip), vehicle: suspension in saline). In addition, the T/C was 363 % of control (dose: 12.0 mg/kg/injection, schedule: Q01DX001 (ip), vehicle: Klucel (hydroxypropylcellulose) (HPC)); 357 % of control under setting [4]; 367 % of control (dose: 13.8 mg/kg/injection, schedule: Q01DX001 (ip), vehicle: DMSO); 324 % of control (dose: 16.0 mg/kg/injection, schedule: Q01DX001 (ip), vehicle: saline + alcohol); 114 % of control (dose: 16.0 mg/kg/injection, schedule: Q01DX005 (ip), vehicle: saline with Tween-80); 363 % of control (dose: 20.0 mg/kg/injection, schedule: Q01DX001 (ip), vehicle: Klucel (hydroxypropylcellulose) (HPC)). Moreover, the T/C runs as follows: (dose: 20.0 mg/kg/injection, schedule: Q07DX003 (ip), vehicle: saline) 99 % of control; (dose: 20.0 mg/kg/injection, schedule: Q07DX003 (ip), vehicle: suspension in saline) 252 % of control; (dose: 23.0 mg/kg/injection, schedule: Q01DX001 (ip), vehicle: DMSO) 367 % of control; (dose: 32.0 mg/kg/injection, schedule: Q01DX001 (ip), vehicle: saline + alcohol) 324 % of control; (dose: 32.0 mg/kg/injection, schedule: Q01DX001 (ip), vehicle: suspension in saline) 120 % of control; (dose: 33.3 mg/kg/injection, schedule: Q01DX001 (ip), vehicle: Klucel (hydroxypropylcellulose) (HPC)) 90 % of control. In addition, the T/C (dose: 38.4 mg/kg/injection, schedule: Q01DX001 (ip), vehicle: DMSO) is 366 % of control.
For the compound `O=c1[nH]cc(F)c(=O)[nH]1`, the T/C runs as follows: (dose: 0.5 mg/kg/injection, schedule: Q01DX005 (ip), vehicle: saline) 108 % of control; (dose: 1.0 mg/kg/injection, schedule: Q01DX005 (ip), vehicle: saline) 108 % of control; (dose: 2.0 mg/kg/injection, schedule: Q01DX005 (ip), vehicle: saline) 111 % of control; (dose: 4.0 mg/kg/injection, schedule: Q01DX005 (ip), vehicle: saline) 113 % of control; (dose: 8.0 mg/kg/injection, schedule: Q01DX005 (ip), vehicle: saline) 105 % of control; (dose: 16.0 mg/kg/injection, schedule: Q01DX005 (ip), vehicle: saline) 105 % of control. Also, the T/C (dose: 32.0 mg/kg/injection, schedule: Q01DX005 (ip), vehicle: saline) is 120 % of control.
Regarding `COc1cc([C@@H]2c3cc4c(cc3[C@@H](OC3OC5COC(C)OC5C(O)C3O)[C@H]3COC(=O)[C@H]23)OCO4)cc(OC)c1O` (some centres not stated), the T/C is 101 % of control (dose: 0.5 mg/kg/injection, schedule: Q01DX005 (ip), vehicle: suspension in saline); 100 % of control under setting [5]; 110 % of control and 114 % of control (dose: 2.0 mg/kg/injection, schedule: Q01DX005 (ip), vehicle: suspension in saline); 112 % of control and 120 % of control under setting [6]; 102 % of control (dose: 16.0 mg/kg/injection, schedule: Q01DX005 (ip), vehicle: suspension in saline).

The values above are taken from PubChem BioAssay AID226 (DTP/NCI, 2004).
